Data as given in patent US11833204B2, “Visible light-activatable nanoparticles for cancer immunotherapy and use thereof” (KOREA INSTITUTE OF SCIENCE AND TECHNOLOGY, priority 2021, dated 2023).

Columns and labels:
[1] = Size analysis of LT-NPs by dynamic light scattering; format: physicochemical; settings: 1 mg/mL in saline, DLS
Experimental: The self-assembled nanoparticles (LT-NPs) prepared in Example 1 were diluted with saline to a concentration of 1 mg/mL and their particle size was analyzed by dynamic light scattering (DLS; Zetasizer Nano ZS, Malvern Instruments).

[2] = Stability of LT-NPs in mouse plasma (size by DLS); format: in vitro ADME, BALB/c mice; settings: BALB/c mouse plasma, 0-72 h
Experimental: In this example, the stability of the self-assembled nanoparticles (LT-NPs) in a body fluid was determined. To this end, the self-assembled nanoparticles (LT-NPs) were stored in plasma samples from BALB/c mice for 0, 1, 3, 6, 24, 48, and 72 h and their sizes were measured by dynamic light scattering (DLS).

CT26 cells [3] = assay: Intracellular behaviour in CT26 cancer cells (confocal microscopy); format: cell-based
Experimental: The following experiment was conducted to evaluate the intracellular behaviors of the self-assembled nanoparticles (LT-NPs). First, 1×10^5 CT26 cells or H9C2 cells were plated in a 35 mm cell culture dish, treated with the self-assembled nanoparticles (LT-NPs, 5 μM) prepared in Example 1, and cultured for 24 h. Thereafter, cells were washed with Dulbecco's PBS (DPBS), fixed in 4% formaldehyde for 10 min, stained with 4′,6-diamidino-2-phenylindole (DAPI) for 5 min, and analyzed with a Leica TCS SP8 confocal microscope (Leica Microsystems GmbH).

CT26 cells [4] = assay: Apoptosis and necrosis of CT26 cells (Annexin V/PI flow cytometry); format: cell-based; settings: CT26, visible light
Experimental: The degrees of apoptosis and necrosis of cancer cells were quantitatively analyzed to accurately evaluate the anticancer effect of the self-assembled nanoparticles (LT-NPs). First, CT26 cells treated with doxorubicin (DOX), verteporfin (VPF), a mixture of doxorubicin and verteporfin (VPF+DOX) or the self-assembled nanoparticles (LT-NPs) and a laser were prepared as above and treated with 5 μg of Annexin V-FITC and 10 μg of PI solution for 10 min. Then, cells were cultured with a cell fixative for 10 min and further cultured with DAPI for 20 min. The degrees of apoptosis and necrosis were quantitatively analyzed using a flow cytometer (BD FACSVerse, BD bioscience, USA).

CT26 cells [5] = assay: In vivo behaviour and tumor accumulation in CT26 tumor animal model; set-up: species or system mice; settings: 5 mg/kg i.v.
Experimental: (§1) […] nude mice (6 weeks old, 20-25 g, male) bred in a sterile environment were used. The mice were acclimated for 2 weeks prior to starting the experiment. The mice had ad libitum access to food and water in cages maintained at a temperature of 22±2° C. and a humidity of 40-60% on a 12 h light and dark cycle during the experiment. All experimental procedures were performed according to the guidelines of the Institutional Animal Care and Use Committee of the Korea Institute of Science and Technology.
Colon cancer was induced in the male nude mice. To this end, 1×10^6 CT26 cells were subcutaneously inoculated into the left thigh of each mouse to construct a tumor animal model. Thereafter, the tumor was allowed to grow until its volume reached ˜200-250 mm^3 prior to the experiment. For sample administration, the mice were randomly divided into 4 groups, 24 animals per group. Verteporfin (VPF) was intravenously administered at a concentration of 5 mg/kg (“VPF-administered group”) and the self-assembled nanoparticles (LT-NPs) were intravenously administered at a concentration of 5 mg/kg (“LT-NPs-administered group”).
The in vivo behaviors of the drugs in the administered groups were evaluated by near-infrared imaging using an IVIS Lumina system for 0.5-9 h.

CT26 cells [6] = assay: Anticancer effect in CT26 tumor animal model; format: in vivo, mice
Experimental: as §1
Colon cancer was induced in the male nude mice. To this end, 1×10^6 CT26 cells were subcutaneously inoculated into the left thigh of each mouse to construct a tumor animal model. Thereafter, the tumor was allowed to grow until its volume reached ˜200-250 mm^3 prior to the experiment. For sample administration, the mice were randomly divided into 4 groups, 24 animals per group. In a control (“Con”), animals were administered intravenously PBS at a concentration of 5 mg/kg twice on days 0 and 2. In a DOX-administered group, animals were administered intravenously doxorubicin (DOX) at a concentration of 5 mg/kg twice on days 0 and 2. In a VPF(+L)-administered group, animals were administered intravenously verteporfin (VPF) at a concentration of 5 mg/kg twice on days 0 and 2 and exposed by irradiation with visible light using a 671 nm laser at 40 mW for 250 sec. In an LT-NPs(-L)-administered group, animals were administered intravenously the self-assembled nanoparticles (LT-NPs) at a concentration of 5 mg/kg twice on days 0 and 2. In an LT-NPs(+L)-administered group, animals were administered intravenously the self-assembled nanoparticles (LT-NPs) at a concentration of 5 mg/kg twice on days 0 and 2 and exposed by irradiation with visible light using a 671 nm laser at 40 mW for 250 sec.
Changes in tumor volume (maximum diameter x minimum diameter^2×0.53) in the groups were measured every 2 days for a total of 0-25 days. After 7 days, blood was harvested from each group and analyzed for HSP70, HMGB1, immunogenic apoptotic cancer cells, mature dendritic cells, activated T cells, and IFN-γ levels.
9 h after drug administration, cancer tissues were excised from each group. Each cancer tissue was sectioned to a thickness of 10 μm, washed twice with DBPS, and stained with DAPI in the dark for 15 min. The section was imaged using a Leica TCS SP8 focal microscope (Leica Microsystems GmbH).
Immune cells infiltrated into cancer cells in each group were analyzed. After 7 days, animals in each group were euthanized under anesthesia and cancer tissues were collected. Monocytes were isolated using a tumor dissociation kit (Miltenyi Biotec) according to the manufacturer's protocol. Next, the monocytes were incubated with Fc block for 5 min to avoid non-specific binding and stained with antibodies for 1 h to determine the proportions of i) immunogenic apoptotic cancer cells (CD45 and CRT staining), ii) activated T cells (CD45, CD3, and CD8 staining), and iii) mature dendritic cells (CD11c, CD40, and CD86 staining) in the cancer tissues.

[7] = after 7 days, +L, Western blotting, versus other groups

## C=CC1=C(C)/C2=C/C3=NC(Cc4[nH]c(c(CCCCC(=O)OC)c4C)CC4N=C(CC1N2)C(C)=C4CCC(=O)N[C@H](Cc1ccccc1)C(=O)N[C@@H](CCCNC(=N)N)C(=O)N[C@H](CCCNC(=N)N)C(=O)NCC(=O)NC1C[C@@H](OC2C[C@](O)(C(=O)CO)Cc4c(O)c5c(c(O)c42)C(=O)c2c(OC)cccc2C5=O)O[C@@H](C)[C@H]1O)[C@@]1(C)C3=CC=C(C(=O)OC)[C@@H]1C(=O)OC (stereo partly shown) [LT-NPs, VPF-FRRG(SEQ ID NO: 1)-DOX]
[1]
  average particle diameter: 87 nm
[2]
  time-dependent change in size in mouse plasma: stably maintained their morphology in the body fluid
CT26 cells [3]; CT26, 5 μM, 24 h
  intracellular cleavage into doxorubicin and verteporfin: cleaved specifically to cancer cells
  presence in cells: observed in both cardiomyocytes (H9C2) and cancer cells (CT26)
CT26 cells [3]; CT26 treated with cathepsin B inhibitor
  intracellular degradation with cathepsin B inhibitor: not degraded and remained stable in the cytoplasm
CT26 cells [4]
  degree of apoptosis (and necrosis): significantly higher than that caused by the conventional drugs
  proportions of early apoptosis, late apoptosis and necrosis: lower proportions of late apoptosis and necrosis and a higher proportion of early apoptosis
CT26 cells [4]; listed as self-assembled nanoparticles
  degree of apoptosis (and necrosis): significantly higher apoptosis and necrosis
CT26 cells [5]
  accumulation in cancer cells (histological analysis): accumulated in cancer cells with significantly higher efficacy than the conventional anticancer drug
CT26 cells [5]; 0.5-9 h, IVIS Lumina
  fluorescence intensity in cancer cells (near-infrared imaging): higher than those of Group 1 treated with verteporfin
CT26 cells [5]; liver, lung, spleen, kidney, heart, tumor
  fluorescence intensity in cancer cells (drug accumulated in tissues): higher than those of Group 1 treated with verteporfin
CT26 cells [6]; 5 mg/kg i.v. days 0 and 2, +L
  number of animals cured: 3
CT26 cells [6]; 5 mg/kg i.v. days 0 and 2, +L (671 nm laser 40 mW 250 sec), versus other groups
  growth of cancer cells (tumor volume): significantly reduced
CT26 cells [6]; after 7 days, +L
  proportion of activated T cells in cancer tissues: significantly higher than those in the other groups
  proportion of immunogenic apoptotic cancer cells in cancer tissues: significantly higher than those in the other groups
  proportion of mature dendritic cells in cancer tissues: significantly higher than those in the other groups
CT26 cells [6]; [7]
  expression level of HMGB1: significantly high
  expression level of HSP70: significantly high
CT26 cells [6]; after 7 days, +L, versus other groups
  degree of apoptosis in cancer cells: significantly high
